Data reported in PubChem BioAssay AID720632 (Broad Institute, 2013).
The source made the active and inactive calls. How the calls were made is not given here.

Biological target: Caspase-6 (Homo sapiens) (UniProt P55212)
Experiment: inhibition of CASP6 peptide cleavage – biochemical, VEID-R110 fluorescence, cherry-pick, dose response (AID 720632)
Conditions: caspase-6, VEID-R110 fluorogenic substrate

Sequence of Caspase-6 (Homo sapiens) (P55212 24-179 limits assumed): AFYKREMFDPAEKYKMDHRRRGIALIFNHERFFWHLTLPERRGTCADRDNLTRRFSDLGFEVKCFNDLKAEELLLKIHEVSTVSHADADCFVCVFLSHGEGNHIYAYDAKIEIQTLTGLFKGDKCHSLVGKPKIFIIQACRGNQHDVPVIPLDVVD
Sequence of Caspase-6 (Homo sapiens) (P55212 194-293 limits assumed): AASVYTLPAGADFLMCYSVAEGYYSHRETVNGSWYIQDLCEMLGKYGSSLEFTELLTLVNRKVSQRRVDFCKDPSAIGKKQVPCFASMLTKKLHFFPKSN

| activity change, negative = inhibition (at 26 µM (top of the series)) | activity change, negative = inhibition (at 23.5 µM (top of the series)) | SMILES |
| --- | --- | --- |
| inactive | – | COc1ccc2cc(C(c3nnnn3C3CCCC3)N3CCc4ccccc4C3)c(=O)[nH]c2c1 (configuration not stated) |
| inactive | – | O=[N+]([O-])c1ccc(S(=O)(=O)N2CCC3(CC2)OCCN3S(=O)(=O)c2cccs2)cc1 |
| inactive | – | CCCN1C[C@H](C)[C@@H](OC)CN(C)C(=O)c2ccc(NC(=O)CC)cc2OC[C@@H]1C |
| inactive | – | CO[C@@H]1CN(C)C(=O)c2ccc(NC(=O)C3CC3)cc2OC[C@@H](C)N(Cc2ccccc2)C[C@H]1C |
| inactive | – | S=c1[nH]cc(-c2ccccc2)n1-c1cccc(Cl)c1 |
| inactive | – | O=C(C1CCN(c2ccc(N3CCOCC3)nn2)CC1)N1CCc2ccccc2C1 |
| inactive | – | CCc1noc(C)c1C(=O)Nc1ccc(S(=O)(=O)N2CCCC(C)C2)cc1 (configuration not stated) |
| inactive | – | COc1ccc(OC)c(N/C(=N/c2nc(C)cc(C)n2)NC(C)=O)c1 |
| inactive | – | O=C(N/N=C/c1coc2ccccc2c1=O)c1cc(Br)ccc1O |
| inactive | – | CCN(C(=O)COC(=O)CNC(=O)c1ccc2ccccc2c1)C1CCS(=O)(=O)C1 (configuration not stated) |
| inactive | – | NCC[C@@H]1CC[C@H](NC(=O)c2ccccc2F)[C@@H](CO)O1 |
| inactive | – | O=C(Nc1ccc2c(c1)OCCO2)C1CCCC1 |
| inactive | – | COc1cccc(C(NC(=O)C2CCN(CCCOc3ccccc3)CC2)c2ccccn2)c1 (configuration not stated) |
| inactive | – | CO[C@@H]1CN(C)C(=O)c2ccc(NC(=O)C3CC3)cc2OC[C@H](C)N(Cc2ccccc2)C[C@H]1C |
| inactive | – | COc1cc(OC)c(-c2nn3c(C4CCCCC4)nnc3s2)cc1OC |
| inactive | – | CC1CCN(CCCNC(=O)COc2cc(=O)n(C)c3ccccc23)CC1 |
| inactive | – | CCN(CC)c1ccc2c(cc1=O)[C@@H](NC)CCc1cc(OC)c(OC)c(OC)c1-2 |
| inactive | – | O=C(NCCCO)c1cc([N+](=O)[O-])cc2c1C=Cc1ccccc1O2 |
| inactive | – | CO[C@@H]1CN(C)C(=O)c2ccc(NC(=O)C3CC3)cc2OC[C@@H](C)N(C)C[C@H]1C |
| inactive | – | CCC(C)CN1C(=O)CN(S(C)(=O)=O)CC1(C)C(=O)Nc1ccc2c(c1)OCCO2 (configuration not stated) |
| inactive | – | CSc1ccccc1NC(=O)Nc1ccccc1 |

| activity change, negative = inhibition (at 26 µM (top of the series)) | activity change, negative = inhibition (at 23.5 µM (top of the series)) | SMILES |
| --- | --- | --- |
| inactive | – | Cc1cc(C)cc(N(CC(=O)NC(C)C)C(=O)CCC(=O)Nc2ccccn2)c1 |
| inactive | – | CCCC(=O)Nc1ccc2c(c1)OC[C@@H](C)N(C(=O)CC)C[C@@H](C)[C@@H](OC)CN(C)C2=O |
| – | inactive | CO[C@H]1CN(C)C(=O)c2ccc(NC(=O)c3ccccc3)cc2OC[C@@H](C)N(C(=O)C2CC2)C[C@H]1C |
| inactive | – | O=C(Nc1ccc(F)cc1)N1CCN(C(=O)C2CCCO2)CC1 (configuration not stated) |
| inactive | – | O=C(Oc1ccc(Nc2ncnc3ccccc23)cc1)c1cccnc1 |
| inactive | – | COc1ccccc1N(CC(=O)NCCSCc1ccccc1Cl)S(C)(=O)=O |
| inactive | – | CC1(C)COC(/C=C/c2cccc([N+](=O)[O-])c2)=N1 |
| inactive | – | O=C(COC(=O)c1ccc([N+](=O)[O-])o1)Nc1ccc(N2CCOCC2)cc1 |
| inactive | – | CCCC(=O)Nc1ccc2c(c1)OC[C@H](C)N(CCC)C[C@H](C)[C@@H](OC)CN(C)C2=O |
| inactive | – | COC(=O)c1ccc(COc2cc([N+](=O)[O-])cc3cccnc23)o1 |
| inactive | – | CC(C)C(=O)N1CCN(c2ccccc2NC(=O)c2cccc3ccccc23)CC1 |
| inactive | – | C#CCNC(=O)C[C@@H]1C[C@@]2(C(=O)OCC)CCC=C2N(Cc2ccc(Cl)cc2Cl)C1=O |
| inactive | – | COc1ccccc1CN(C)C(=O)CN1CCN(CC(=O)Nc2ccccc2Cl)CC1 |
| inactive | – | Cc1ccc(NC(=O)c2sc(C)nc2C)c(C)c1 |
| inactive | – | C[C@@H]1CN([C@@H](C)CO)C(=O)Cc2cc(N(C)C)ccc2O[C@@H]1CN(C)Cc1ccccc1 |
| inactive | – | CCS(=O)(=O)c1nc(S(=O)(=O)c2ccc(Cl)cc2)c(N2CCOCC2)s1 |
| inactive | – | COc1ccc(CCNC(=O)c2cc3cccc(OC)c3oc2=O)cc1OC |
| inactive | – | Nc1ccc2cn[nH]c2c1 |
| inactive | – | O=C(O)c1ccc(Cn2cc(/C=C\[N+](=O)[O-])c3ccccc32)o1 |
| inactive | – | C/C=C/c1ccc([C@@H]2[C@H](CO)N(C(=O)C3CCCC3)C23CN(S(C)(=O)=O)C3)cc1 |
| inactive | – | COc1cc(/C=C2\SC(=O)NC2=O)ccc1Oc1ccc([N+](=O)[O-])cc1[N+](=O)[O-] |

| activity change, negative = inhibition (at 26 µM (top of the series)) | activity change, negative = inhibition (at 23.5 µM (top of the series)) | SMILES |
| --- | --- | --- |
| inactive | – | C[C@@H]1CN([C@H](C)CO)C(=O)c2cc(Br)cnc2O[C@H]1CN(C)CC1CCCC1 |
| inactive | – | CN1CCN(NC(=O)Nc2ccc(F)cc2)CC1 |
| inactive | – | CO[C@@H]1CN(C)C(=O)c2ccc(NC(C)=O)cc2OC[C@@H](C)N(C(=O)CC2CC2)C[C@@H]1C |
| inactive | – | CO[C@H]1CN(C)C(=O)c2ccc(NC(=O)c3ccccc3)cc2OC[C@H](C)N(C(=O)C2CC2)C[C@H]1C |
| inactive | – | CCCN1C[C@H](C)[C@H](OC)CN(C)C(=O)c2ccc(NC(=O)CC)cc2OC[C@@H]1C |
| inactive | – | COc1ccc(N2CCN(C(=O)CCNS(=O)(=O)c3ccc(C)cc3)CC2)cc1 |
| inactive | – | CCOC(=O)N1CCN(C(=O)CN(C)S(=O)(=O)c2ccc3c(c2)c(=O)n(C)c(=O)n3C)CC1 |
| inactive | – | CCOc1cc2c(cc1OC)C(c1cccc([N+](=O)[O-])c1)NCC2 (configuration not stated) |
| inactive | – | CC1CCCCC1NS(=O)(=O)c1ccc(S(=O)(=O)N2CCN(CCC#N)CC2)cc1 (configuration not stated) |
| inactive | – | Cc1[nH]ncc1Nc1c(C(C)C)cccc1C(C)C |
| inactive | – | OC(CNC1CCCCC1)COCCOc1ccc(Br)cc1 (configuration not stated) |
| inactive | – | CCCC(=O)n1nc(-c2cccnc2)nc1NCc1ccc(OC)cc1 |
| inactive | – | CSc1ccc(CN2CCC2(C)C(=O)Nc2cccc(NS(C)(=O)=O)c2)cc1 (configuration not stated) |
| inactive | – | CN1C(=O)CC(Sc2ccccc2C(=O)O)C1=O (configuration not stated) |
| inactive | – | CC1CCc2[nH]c3ccc(C(=O)O)cc3c2C1 (configuration not stated) |
| inactive | – | Cc1csc(=O)n1CCC(=O)OCc1nnc(-c2ccc([N+](=O)[O-])cc2)o1 |
| inactive | – | CC1CCCN(CC(O)COC(c2ccccc2)c2ccccc2)C1 (configuration not stated) |
| inactive | – | COc1cc(Br)cc(CN2CCN(C/C=C/c3ccccc3)CC2)c1O |
| inactive | – | O=C1Nc2cc(Cl)cnc2N2CCCC12 (configuration not stated) |
| inactive | – | CO[C@@H]1CN(C)C(=O)c2ccc(NC(=O)C3CC3)cc2OC[C@@H](C)N(CC2CCOCC2)C[C@@H]1C |
